Assays:
[1] = Lipophilicity log P of the compound; type: physicochemical; details: octanol/water
[2] = Aqueous solubility of the compound at pH 6.8; type: physicochemical
BT-474 = assay: Antiproliferative activity against human BT474 cells by methylene blue staining method
[3] = target: Epidermal growth factor receptor (Homo sapiens, UniProt P00533); assay: Inhibition of EGFR by homogeneous time-resolved fluorescence assay
[4] = target: Receptor tyrosine-protein kinase erbB-2 (Homo sapiens, UniProt P04626); assay: Inhibition of HER2 by homogeneous time-resolved fluorescence assay
Chain of Receptor tyrosine-protein kinase erbB-2 (P04626 whole entry): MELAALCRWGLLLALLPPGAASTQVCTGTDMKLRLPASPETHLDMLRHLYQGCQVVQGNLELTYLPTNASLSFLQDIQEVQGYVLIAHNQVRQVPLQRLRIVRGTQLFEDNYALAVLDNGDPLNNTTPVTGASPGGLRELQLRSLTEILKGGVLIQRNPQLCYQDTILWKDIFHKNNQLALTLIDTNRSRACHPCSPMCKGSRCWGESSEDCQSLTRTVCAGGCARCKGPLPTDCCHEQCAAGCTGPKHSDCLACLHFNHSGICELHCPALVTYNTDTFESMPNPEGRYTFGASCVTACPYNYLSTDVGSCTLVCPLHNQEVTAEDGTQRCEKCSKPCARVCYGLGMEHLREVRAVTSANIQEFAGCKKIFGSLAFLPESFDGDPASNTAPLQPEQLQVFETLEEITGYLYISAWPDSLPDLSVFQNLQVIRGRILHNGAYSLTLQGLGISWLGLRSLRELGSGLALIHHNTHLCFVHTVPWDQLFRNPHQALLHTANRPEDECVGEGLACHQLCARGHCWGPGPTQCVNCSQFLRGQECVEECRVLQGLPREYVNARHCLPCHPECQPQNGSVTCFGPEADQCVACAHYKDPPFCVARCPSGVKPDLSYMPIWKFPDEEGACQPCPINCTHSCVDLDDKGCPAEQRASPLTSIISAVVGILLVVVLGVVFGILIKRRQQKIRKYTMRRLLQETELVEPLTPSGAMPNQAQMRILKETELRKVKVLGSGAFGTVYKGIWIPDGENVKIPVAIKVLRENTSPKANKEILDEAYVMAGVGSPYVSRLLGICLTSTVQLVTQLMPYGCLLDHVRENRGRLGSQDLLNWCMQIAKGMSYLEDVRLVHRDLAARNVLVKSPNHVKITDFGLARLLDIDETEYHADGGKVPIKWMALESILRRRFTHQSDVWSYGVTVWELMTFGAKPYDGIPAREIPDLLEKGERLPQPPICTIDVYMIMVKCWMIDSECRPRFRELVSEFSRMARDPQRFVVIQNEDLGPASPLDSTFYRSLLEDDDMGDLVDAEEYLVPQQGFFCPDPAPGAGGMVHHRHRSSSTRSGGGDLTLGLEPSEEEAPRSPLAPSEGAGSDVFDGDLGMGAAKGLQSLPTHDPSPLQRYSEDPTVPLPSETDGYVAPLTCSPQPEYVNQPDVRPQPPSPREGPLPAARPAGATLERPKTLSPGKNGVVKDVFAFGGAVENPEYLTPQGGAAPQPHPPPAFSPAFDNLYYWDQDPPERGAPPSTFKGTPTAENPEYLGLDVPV

Chain of Epidermal growth factor receptor (P00533 whole entry): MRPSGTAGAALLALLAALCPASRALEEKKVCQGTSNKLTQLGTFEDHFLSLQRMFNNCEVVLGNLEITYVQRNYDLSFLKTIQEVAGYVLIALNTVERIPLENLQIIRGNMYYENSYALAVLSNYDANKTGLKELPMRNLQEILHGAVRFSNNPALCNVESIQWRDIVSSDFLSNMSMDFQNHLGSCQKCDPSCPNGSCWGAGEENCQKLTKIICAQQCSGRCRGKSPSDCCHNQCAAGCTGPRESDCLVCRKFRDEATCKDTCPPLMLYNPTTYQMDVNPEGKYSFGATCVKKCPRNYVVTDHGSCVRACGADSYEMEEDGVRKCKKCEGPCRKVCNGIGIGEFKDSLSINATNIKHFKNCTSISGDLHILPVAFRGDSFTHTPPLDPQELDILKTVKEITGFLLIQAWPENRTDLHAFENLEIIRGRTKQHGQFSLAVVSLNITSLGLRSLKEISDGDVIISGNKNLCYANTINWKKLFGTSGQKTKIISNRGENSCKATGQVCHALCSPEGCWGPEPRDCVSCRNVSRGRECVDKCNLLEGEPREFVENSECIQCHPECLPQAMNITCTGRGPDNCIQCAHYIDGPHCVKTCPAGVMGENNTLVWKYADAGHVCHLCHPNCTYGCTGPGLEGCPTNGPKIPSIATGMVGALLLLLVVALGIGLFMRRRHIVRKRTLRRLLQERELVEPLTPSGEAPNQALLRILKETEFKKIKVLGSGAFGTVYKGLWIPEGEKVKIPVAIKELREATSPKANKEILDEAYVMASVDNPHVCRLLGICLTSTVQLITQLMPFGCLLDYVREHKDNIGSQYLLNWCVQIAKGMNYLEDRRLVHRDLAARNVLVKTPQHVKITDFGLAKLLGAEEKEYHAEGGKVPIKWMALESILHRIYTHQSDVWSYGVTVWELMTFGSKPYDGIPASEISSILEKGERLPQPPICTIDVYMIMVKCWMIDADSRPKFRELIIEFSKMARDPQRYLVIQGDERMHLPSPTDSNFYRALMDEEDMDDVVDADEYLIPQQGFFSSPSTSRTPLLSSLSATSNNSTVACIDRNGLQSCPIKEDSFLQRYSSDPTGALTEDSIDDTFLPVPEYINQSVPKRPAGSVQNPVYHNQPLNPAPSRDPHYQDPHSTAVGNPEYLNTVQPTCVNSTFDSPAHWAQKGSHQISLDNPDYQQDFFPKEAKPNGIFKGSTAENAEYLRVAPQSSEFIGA

| Compound | logP [1] | solubility ([2]; buffer) | IC50 (BT-474) | IC50 [3] | IC50 [4] | solubility ([2]; aqueous, read-out: solubility) |
| --- | --- | --- | --- | --- | --- | --- |
| CS(=O)(=O)CCNCc1ccc(-c2ccc3ncnc(Nc4ccc(OCc5cccc(F)c5)c(Cl)c4)c3c2)o1.Cc1ccc(S(=O)(=O)O)cc1.Cc1ccc(S(=O)(=O)O)cc1.O [LAPATINIB DITOSYLATE] | 6.67 | 24 µM | 100 nM | – | – | – |
| Cc1ncnc(Nc2ccc(OCc3cccc(F)c3)c(Cl)c2)c1/C=C/c1ccc(CN2CCOCC2)cc1 | 7.73 | – | 644 nM | 120 nM | 190 nM | – |
| Cc1ncnc(Nc2ccc(OCc3cccc(F)c3)c(Cl)c2)c1C#Cc1ccc(CN2CCOCC2)cc1 | 6.96 | – | 394 nM | 240 nM | 440 nM | > 50 µM |
| Cc1ncnc(Nc2ccc(OCc3cccc(F)c3)c(Cl)c2)c1/C=C(\F)C(=O)NCCN1CCOCC1 | – | – | – | – | 78 nM | – |
| Cc1ncnc(Nc2ccc(OCc3cccc(F)c3)c(Cl)c2)c1C#CCN1CCOCC1 | – | – | – | 4130 nM | 5380 nM | – |
| CCc1ncnc(Nc2ccc(OCc3cccc(F)c3)c(Cl)c2)c1C | – | – | – | 640 nM | 2900 nM | – |
| Cc1ncnc(Nc2ccc(OCc3cccc(F)c3)c(Cl)c2)c1C#CCCNCc1ccccc1 | – | – | – | 270 nM | 810 nM | – |
| Cc1ncnc(Nc2ccc(OCc3cccc(F)c3)c(Cl)c2)c1-c1cccc(CN2CCOCC2)c1 | – | – | – | 590 nM | 3750 nM | – |
| Cc1ncnc(Nc2ccc(OCc3cccc(F)c3)c(Cl)c2)c1C | – | – | – | 17 nM | 140 nM | – |
| Cc1c(Nc2ccc(OCc3cccc(F)c3)c(Cl)c2)ncnc1-c1ccccc1 | – | – | – | 20000 nM | 65000 nM | – |
| C/C(=C\c1c(C)ncnc1Nc1ccc(OCc2cccc(F)c2)c(Cl)c1)C(=O)NCCN1CCOCC1 | – | – | – | 28 nM | 81 nM | – |
| Cc1ncnc(Nc2ccc(OCc3cccc(F)c3)c(Cl)c2)c1/C=C/c1ccc(CN2CCOCC2)cc1.Cl | – | – | – | – | – | 2 µM |
| Cc1ncnc(Nc2ccc(OCc3cccc(F)c3)c(Cl)c2)c1C#CCCN1CCOCC1 | – | – | – | 13 nM | 74 nM | – |
| Fc1cccc(COc2ccc(Nc3cc(-c4ccccc4)ncn3)cc2Cl)c1 | – | – | – | 1200 nM | 6300 nM | – |
| Cc1ncnc(Nc2ccc(OCc3cccc(F)c3)c(Cl)c2)c1/C=C/C(=O)NCCN1CCOCC1 | – | – | – | 114 nM | 318 nM | – |
| Fc1cccc(COc2ccc(Nc3cc(-c4cccnc4)ncn3)cc2Cl)c1 | – | – | – | 47000 nM | > 100000 nM | – |
| CCN1CCN(CCCC#Cc2c(C)ncnc2Nc2ccc(OCc3cccc(F)c3)c(Cl)c2)CC1 | 6.23 | – | 1440 nM | 9 nM | 36 nM | > 50 µM |
| Cc1ncnc(Nc2ccc(OCc3cccc(F)c3)c(Cl)c2)c1/C=C(\F)C(=O)NCCS(C)(=O)=O | – | – | – | 19 nM | 71 nM | – |
| Cc1ncnc(Nc2ccc(OCc3cccc(F)c3)c(Cl)c2)c1/C=N/OCCCN1CCOCC1 | – | – | – | 65 nM | 1800 nM | – |
| Fc1cccc(COc2ccc(Nc3cc(N4CCCC4)ncn3)cc2Cl)c1 | – | – | – | > 100000 nM | > 100000 nM | – |
| Fc1cccc(COc2ccc(Nc3ccncn3)cc2Cl)c1 | – | – | – | 920 nM | 25000 nM | – |
| Cc1ncnc(Nc2ccc(OCc3cccc(F)c3)c(Cl)c2)c1C#C/C=N/OCCN1CCOCC1 | – | – | – | 38 nM | 70 nM | – |
| Fc1cccc(COc2ccc(Nc3cc(Oc4ccccc4)ncn3)cc2Cl)c1 | – | – | – | 10000 nM | > 100000 nM | – |
| CCN1CCN(C(=O)/C(F)=C/c2c(C)ncnc2Nc2ccc(OCc3cccc(F)c3)c(Cl)c2)CC1 | – | – | – | 156 nM | 102 nM | – |
| Cc1cc(Nc2ccc(OCc3cccc(F)c3)c(Cl)c2)ncn1 | – | – | – | 1100 nM | 6500 nM | – |
| Cc1ncnc(Nc2ccc(OCc3cccc(F)c3)c(Cl)c2)c1/C=N/OCCN1CCOCC1 | – | – | – | 68 nM | 740 nM | – |
| Cc1ncnc(Nc2ccc(OCc3cccc(F)c3)c(Cl)c2)c1C#CCCCN1CCCC1 | – | – | – | – | 95 nM | – |
| Fc1cccc(COc2ccc(Nc3cc(-c4ccsc4)ncn3)cc2Cl)c1 | – | – | – | – | 36000 nM | – |
| Cc1ncnc(Nc2ccc(OCc3cccc(F)c3)c(Cl)c2)c1/C=C(\F)C(=O)NCCN1CCCC1 | 5.98 | – | 1130 nM | 3 nM | 19 nM | > 50 µM |
| Cc1ncnc(Nc2ccc(OCc3cccc(F)c3)c(Cl)c2)c1C#CCCCN1CCOCC1 | – | – | – | 34 nM | 150 nM | – |

Reference: ChEMBL document CHEMBL1681756, “Synthesis and evaluation of novel pyrimidine-based dual EGFR/Her-2 inhibitors” (Bioorg Med Chem Lett, 2011)
